# ChEMBL document CHEMBL1135098, “Design, synthesis and evaluation of substituted phenylpropanoic acid derivatives as peroxisome proliferator-activated receptor (PPAR) activators: novel human PPARalpha-selective activators” (Bioorg Med Chem Lett, 2002)
# How the values were obtained:
# [1] = target: T1, Peroxisome proliferator-activated receptor gamma (Homo sapiens, UniProt P37231); assay: […] of human Peroxisome proliferator activated receptor gamma in CHO-K1 cells;ia means inactive at 10 uM; assay type: cell-based
# T1 sequence (P37231 whole entry): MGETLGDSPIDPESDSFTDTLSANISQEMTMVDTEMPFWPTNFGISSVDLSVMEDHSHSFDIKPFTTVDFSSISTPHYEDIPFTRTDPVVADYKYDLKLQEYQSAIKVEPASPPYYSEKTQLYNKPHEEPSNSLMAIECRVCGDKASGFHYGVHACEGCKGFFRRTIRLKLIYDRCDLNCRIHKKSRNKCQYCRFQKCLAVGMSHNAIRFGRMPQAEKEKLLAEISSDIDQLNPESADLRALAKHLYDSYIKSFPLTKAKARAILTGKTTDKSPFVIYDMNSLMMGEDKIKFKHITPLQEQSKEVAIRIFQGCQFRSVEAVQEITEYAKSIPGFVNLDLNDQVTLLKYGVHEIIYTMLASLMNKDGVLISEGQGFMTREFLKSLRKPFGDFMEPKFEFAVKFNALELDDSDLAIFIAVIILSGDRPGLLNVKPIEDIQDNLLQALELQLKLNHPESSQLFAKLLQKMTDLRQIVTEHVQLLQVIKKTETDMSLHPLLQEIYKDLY
# [2] = target: T2, Peroxisome proliferator-activated receptor alpha (Homo sapiens, UniProt Q07869); assay: Concentration of compound that affords half-maximum transactivation of human Peroxisome proliferator activated receptor alpha in CHO-K1 cells was determined in vitro;ia means inactive at 10 uM; assay type: cell-based
# T2 sequence (Q07869 whole entry): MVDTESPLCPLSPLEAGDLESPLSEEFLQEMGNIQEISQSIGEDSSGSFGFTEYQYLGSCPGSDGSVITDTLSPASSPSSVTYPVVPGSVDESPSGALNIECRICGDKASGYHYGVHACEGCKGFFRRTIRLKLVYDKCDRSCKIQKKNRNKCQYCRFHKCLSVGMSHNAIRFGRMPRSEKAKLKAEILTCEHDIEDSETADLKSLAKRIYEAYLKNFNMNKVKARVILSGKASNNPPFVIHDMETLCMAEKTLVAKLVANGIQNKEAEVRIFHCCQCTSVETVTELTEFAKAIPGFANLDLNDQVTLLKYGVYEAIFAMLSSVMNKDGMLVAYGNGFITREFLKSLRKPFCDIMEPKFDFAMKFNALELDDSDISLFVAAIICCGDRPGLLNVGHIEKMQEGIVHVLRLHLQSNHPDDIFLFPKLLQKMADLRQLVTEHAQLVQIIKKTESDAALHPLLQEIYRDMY
# [3] = target: T1, Peroxisome proliferator-activated receptor gamma
# Description: Concentration of compound that affords half-maximum transactivation of human Peroxisome proliferator activated receptor gamma in CHO-K1 cells was determined in vitro
# [4] = target: T2, Peroxisome proliferator-activated receptor alpha; assay: Transactivation of human Peroxisome proliferator activated receptor alpha expressed in CHO-K1 cells; assay type: cell-based
EC50 [1],EC50 [2],SMILES,further results
Not Active,–,COc1ccc(CCC(=O)O)cc1C(=O)NCc1ccc(C(F)(F)F)cc1,–
Not Active,Not Active,COc1ccc(CC(Oc2ccccc2)C(=O)O)cc1C(=O)NCc1ccc(C(F)(F)F)cc1 (stereo not drawn),–
Not Active,–,COc1ccc(CC(OC)C(=O)O)cc1C(=O)NCc1ccc(C(F)(F)F)cc1 (stereo not drawn),–
Not Active,Not Active,COc1ccc(C(=O)O)cc1C(=O)NCc1ccc(C(F)(F)F)cc1,–
Not Active,–,COc1ccc(CC(C(=O)O)C(C)C)cc1C(=O)NCc1ccc(C(F)(F)F)cc1 (stereo not drawn),–
Not Active,–,COc1ccc(CC(C)C(=O)O)cc1C(=O)NCc1ccc(C(F)(F)F)cc1 (stereo not drawn),–
Not Active,Not Active,COc1ccc(CC(=O)O)cc1C(=O)NCc1ccc(C(F)(F)F)cc1,–
–,–,COc1ccc(CCCC(=O)O)cc1C(=O)NCc1ccc(C(F)(F)F)cc1,EC50 [3]: 3 µM; EC50 [4]: 2.2 µM
Not Active,–,COc1ccc(CC(C)(C)C(=O)O)cc1C(=O)NCc1ccc(C(F)(F)F)cc1,–
Not Active,–,CCCC(Cc1ccc(OC)c(C(=O)NCc2ccc(C(F)(F)F)cc2)c1)C(=O)O (stereo not drawn),–
Not Active,–,CCC(CC)(Cc1ccc(OC)c(C(=O)NCc2ccc(C(F)(F)F)cc2)c1)C(=O)O,–
Not Active,Not Active,COc1ccc(CC(C(=O)O)c2ccccc2)cc1C(=O)NCc1ccc(C(F)(F)F)cc1 (stereo not drawn),–
–,–,CC(C)(Oc1ccc(CCNC(=O)c2ccc(Cl)cc2)cc1)C(=O)O [BEZAFIBRATE],EC50 [3]: > 137 µM
